Converted amounts (≈) assume the structure as drawn. The source made the active and inactive calls. No cut-off for these calls is given here.
Experiments:
[1] = biological target: T1, Salicyl-AMP ligase / salicyl-S-ArCP synthetase (Mycobacterium tuberculosis) (UniProt P71716); assay: Binding affinity to Mycobacterium tuberculosis MbtA assessed as change in thermal stability at 100 uM incubated for 1 hr in presence of ATP at pH 7.5 by thermo fluorometer analysis
T1 sequence (whole entry): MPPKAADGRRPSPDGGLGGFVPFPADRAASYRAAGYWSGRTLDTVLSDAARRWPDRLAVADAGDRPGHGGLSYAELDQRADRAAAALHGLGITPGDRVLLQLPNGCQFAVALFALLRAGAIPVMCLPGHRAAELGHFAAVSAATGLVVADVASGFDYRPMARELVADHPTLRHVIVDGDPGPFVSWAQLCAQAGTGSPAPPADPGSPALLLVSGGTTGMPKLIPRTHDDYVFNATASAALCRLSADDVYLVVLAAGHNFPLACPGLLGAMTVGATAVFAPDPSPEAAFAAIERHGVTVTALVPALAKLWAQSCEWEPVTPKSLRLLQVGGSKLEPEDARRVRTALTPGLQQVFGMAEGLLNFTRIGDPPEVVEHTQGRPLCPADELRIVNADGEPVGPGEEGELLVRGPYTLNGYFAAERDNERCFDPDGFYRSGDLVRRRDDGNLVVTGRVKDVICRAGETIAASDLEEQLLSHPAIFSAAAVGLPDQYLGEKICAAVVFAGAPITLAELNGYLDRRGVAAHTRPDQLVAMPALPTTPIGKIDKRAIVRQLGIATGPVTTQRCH

[2] = system: Mycolicibacterium aurum; assay: Antimycobacterial activity against Mycobacterium aurum ATCC 10437 infected in RAW264.7 cells assessed as inhibition of growth at 16 ug/ml incubated for 72 hrs by SPOTi assay; format: functional; design: scale not given: the % may be the effect or the level left; settings: dose 16 µg/ml
[3] = system: Mycolicibacterium aurum; assay: Antimycobacterial activity against Mycobacterium aurum ATCC 10437 cultured in GAST-Fe media incubated for 72 hrs by resazurin microtiter assay; format: functional
[4] = Volume of distribution at steady state in Sprague-Dawley rat at 1 mg/kg, iv; format: ADME, organism-based; settings: in vivo
[5] = AUCinfinity in Sprague-Dawley rat at 5 mg/kg, po; format: ADME, organism-based; design: time infinity, route oral, dose 5 mg/kg; settings: in vivo
[6] = AUClast in Sprague-Dawley rat at 5 mg/kg, po; format: ADME, organism-based; design: time 0 - last, route oral, dose 5 mg/kg; settings: in vivo
[7] = Selectivity index, ratio of GIC90 for cytotoxicity against human THP-1 cells to MIC90 for Antitubercular activity against Mycobacterium smegmatis mc2155 ATCC 700084; format: toxicity, cell-based; settings: read-out: Selectivity Index
[8] = system: Mycolicibacterium smegmatis; assay: Synergistic antibacterial activity against Mycobacterium smegmatis mc2155 ATCC 700084 assessed as fractional inhibitory concentration in presence of isoniazid by checker board assay; format: functional
[9] = system: Mycolicibacterium smegmatis; assay: Bactericidal activity against Mycobacterium smegmatis mc2155 ATCC 700084 assessed as inhibition of bacterial growth preincubated for 48 hrs followed by agar surface scraped and transfer to GAST medium and measured after 5 days by HT-SPOTi assay; format: functional, organism-based; settings: time 7.0 day
[10] = Elimination half life in Sprague-Dawley rat at 5 mg/kg, po; format: ADME, organism-based; settings: in vivo, read-out: beta t1/2 (converted)
[11] = Selectivity index, ratio of GIC90 for Cytotoxicity against human THP-1 cells to MIC90 for Antitubercular activity against Mycobacterium aurum ATCC 10437; format: toxicity, cell-based; settings: read-out: Selectivity Index
[12] = Selectivity index, ratio of GIC90 for cytotoxicity against mouse RAW264.7 cells to MIC90 for Antitubercular activity against Mycobacterium smegmatis mc2155 ATCC 700084; format: toxicity, cell-based; settings: read-out: Selectivity Index
[13] = Oral bioavailability in Sprague-Dawley rat at 5 mg/kg; format: ADME, organism-based; settings: in vivo
[14] = system: THP-1; assay: Cytotoxicity against human THP-1 cells assessed as inhibition of growth measured for 48 hrs by resazurin microtiter assay; format: functional
[15] = Cmax in Sprague-Dawley rat at 1 mg/kg, iv; format: ADME, organism-based; design: route intravenous, dose 1 mg/kg; settings: in vivo
[16] = system: Mycobacterium tuberculosis; assay: microbe, parasite or virus in culture; settings: H37Rv ATCC 27294, 192 h
[17] = AUClast in Sprague-Dawley rat at 1 mg/kg, iv; format: ADME, organism-based; design: route intravenous, time 0 - last, dose 1 mg/kg; settings: in vivo
[18] = Tlast in Sprague-Dawley rat at 5 mg/kg, po; format: ADME, organism-based; settings: in vivo
[19] = system: Mycolicibacterium aurum; assay: Antimycobacterial activity against Mycobacterium aurum ATCC 10437 cultured in GAST media incubated for 72 hrs by resazurin microtiter assay; format: functional
[20] = Hepatic clearance in Sprague-Dawley rat at 1 mg/kg, iv; format: ADME, organism-based, Liver; settings: in vivo
[21] = system: Mycolicibacterium smegmatis; assay: Antitubercular activity against Mycobacterium smegmatis mc2155 ATCC 700084 cultured in GAST-Fe media incubated for 24 hrs by resazurin microtiter assay; format: functional
[22] = Selectivity index, ratio of GIC90 for Cytotoxicity against mouse RAW264.7 cells to MIC90 for Antitubercular activity against Mycobacterium bovis BCG ATCC 35734; format: toxicity, cell-based; settings: read-out: Selectivity Index
[23] = system: RAW264.7; assay: Cytotoxicity against mouse RAW264.7 cell assessed as inhibition of growth measured for 48 hrs by resazurin microtiter assay; format: functional
[24] = Elimination half life in Sprague-Dawley rat at 1 mg/kg, iv; format: ADME, organism-based; settings: in vivo, read-out: beta t1/2 (converted)
[25] = system: Mycobacterium tuberculosis; assay: microbe, parasite or virus in culture; settings: H37Rv ATCC 27294, 192 h; remark: listed apart in the source
[26] = biological target: T1, Salicyl-AMP ligase / salicyl-S-ArCP synthetase (Mycobacterium tuberculosis); assay: Binding affinity to Mycobacterium tuberculosis MbtA assessed as change in thermal stability at 100 uM incubated for 1 hr in presence of ATP at pH 8.5 by thermo fluorometer analysis
[27] = Selectivity index, ratio of GIC90 for Cytotoxicity against mouse RAW264.7 cells MIC90 for Antitubercular activity against Mycobacterium aurum ATCC 10437; format: toxicity, cell-based; settings: read-out: Selectivity Index
[28] = Tlast in Sprague-Dawley rat at 1 mg/kg, iv; format: ADME, organism-based; settings: in vivo
[29] = system: Mycolicibacterium smegmatis; assay: Synergistic antibacterial activity against Mycobacterium smegmatis mc2155 ATCC 700084 assessed as fractional inhibitory concentration in presence of rifampicin by checker board assay; format: functional
[30] = AUCinfinity in Sprague-Dawley rat at 1 mg/kg, iv; format: ADME, organism-based; design: time infinity, route intravenous, dose 1 mg/kg; settings: in vivo
[31] = Selectivity index, ratio of GIC90 for Cytotoxicity against […] human THP-1 cells to MIC90 for Antitubercular activity against Mycobacterium bovis BCG ATCC 35734; format: toxicity, cell-based; settings: read-out: Selectivity Index
[32] = system: Mycolicibacterium smegmatis; assay: Antitubercular activity against Mycobacterium smegmatis mc2155 ATCC 700084 cultured in GAST media incubated for 24 hrs by resazurin microtiter assay; format: functional
[33] = system: Mycolicibacterium smegmatis; assay: Antibacterial activity against Mycobacterium smegmatis mc2155 ATCC 700084 cultured in iron supplemented medium assessed as inhibition of siderophore production at 4 ug/ml measured after 3 hrs by CAS assay relative to control; format: functional; design: scale not given: the % may be the effect or the level left; settings: dose 4 µg/ml
[34] = system: Mycolicibacterium smegmatis; assay: Antibacterial activity against Mycobacterium smegmatic mc2155 ATCC 700084 assessed as inhibition of efflux pump using ethidium bromide as substrate measured every min for 45 mins; format: functional, organism-based
[35] = Cmax in Sprague-Dawley rat at 5 mg/kg, po; format: ADME, organism-based; design: route oral, dose 5 mg/kg; settings: in vivo
[36] = system: Mycolicibacterium smegmatis; assay: Bacteriostatic activity against Mycobacterium smegmatis mc2155 ATCC 700084 assessed as inhibition of bacterial growth preincubated for 48 hrs followed by agar surface scraped and transfer to GAST medium and measured after 5 days by HT-SPOTi assay; format: functional, organism-based; settings: time 7.0 day

Row | SMILES | Tm [1] [°C] | Activity [2] [%] | MIC90 [3] [µg/mL] | Vdss [4] [kg/L] | AUC(0-inf) [5] [ng·h/mL] | AUC(0-t) [6] [ng·h/mL] | selectivity ratio [7] | FIC [8] | half-life [10] [h] | selectivity ratio [11] | selectivity ratio [12] | bioavailability [13] [%] | GI90 [14] [µg/mL] | Cmax [15] [ng/mL] | MIC90 [16] [µg/mL] | AUC(0-t) [17] [ng·h/mL] | Tlast [18] [h] | MIC90 [19] [µg/mL] | CLH [20] [mL/min/kg] | MIC90 [21] [µg/mL] | also measured
1 | Oc1ccccc1C1=NNC(c2ccc(Cl)cc2)C1 (stereo not given) | 2 | 90 | 128 (≈ 469 µM) | 11.5 | 215 | 203 | 16 | 0.6 | 6.06 | 8 | 32 | 21 | 64 (≈ 235 µM) | 448 | 128 (≈ 469 µM) | 190 | 24 | 16 (≈ 58.7 µM) | 84.8 | 64 (≈ 235 µM) | Activity [9]: Active; selectivity ratio [22]: 16; GI90 [23]: 128 µg/mL (≈ 469 µM); half-life [24]: 4.76 h; MIC90 [25]: 16 µg/mL (≈ 58.7 µM); Tm [26]: 2 °C; selectivity ratio [27]: 8; Tlast [28]: 12 h; FIC [29]: 1.12; AUC(0-inf) [30]: 197 ng·h/mL; selectivity ratio [31]: 16; MIC90 [32]: 4 µg/mL (≈ 14.7 µM); Activity [33]: 54.7%; Activity [34]: Active; Cmax [35]: 51.6 ng/mL
2 | Oc1ccccc1C1=NNC(c2ccc(Br)cc2)C1 (stereo not given) | 2 | 90 | 128 (≈ 404 µM) | 17.3 | 184 | 167 | 16 | 0.6 | 5.32 | 8 | 32 | 22 | 64 (≈ 202 µM) | 505 | 128 (≈ 404 µM) | 155 | 24 | 8 (≈ 25.2 µM) | 100 | 64 (≈ 202 µM) | Activity [36]: Active; selectivity ratio [22]: 16; GI90 [23]: 128 µg/mL (≈ 404 µM); half-life [24]: 5.42 h; MIC90 [25]: 8 µg/mL (≈ 25.2 µM); Tm [26]: 2.5 °C; selectivity ratio [27]: 8; Tlast [28]: 12 h; FIC [29]: 1.12; AUC(0-inf) [30]: 167 ng·h/mL; selectivity ratio [31]: 16; MIC90 [32]: 4 µg/mL (≈ 12.6 µM); Activity [33]: 51.76%; Activity [34]: Active; Cmax [35]: 47.4 ng/mL

— ChEMBL document CHEMBL5046254, “Mycobactin Analogues with Excellent Pharmacokinetic Profile Demonstrate Potent Antitubercular Specific Activity and Exceptional Efflux Pump Inhibition” (J Med Chem, 2022)
